This is an account of results in patent US6579982B1, “Pyrimidine-2,4,6-trione metalloproteinase inhibitors” (Pfizer Inc., priority 1999, dated 2003).

For orientation: melting point means the temperature, or range, at which the solid turns liquid.

For the compound `CC1(Oc2ccc(Oc3ccccc3)cc2)C(=O)NC(=O)NC1=O`, the melting point came to 182 °C. The result for `CCCCC1(Oc2ccc(Oc3ccccc3)cc2)C(=O)NC(=O)NC1=O` reads 59 to 60 °C. The result for `CC1(Oc2ccc(Oc3ccc(F)cc3)cc2)C(=O)NC(=O)NC1=O` reads 187 to 189 °C; that for `CCCCC1(Oc2ccc(Oc3ccc(F)cc3)cc2)C(=O)NC(=O)NC1=O`, 183 °C; that for `CC1(Oc2cccc(-c3ccccc3)c2)C(=O)NC(=O)NC1=O`, 175 °C.

Compound `CC1(Oc2ccc(-c3ccccc3)cc2)C(=O)NC(=O)NC1=O` yielded a melting point of 200 to 202 °C.
